Literature values as cited in patent publication US9763453B2, “Antimicrobial coating for inhibition of bacterial adhesion and biofilm formation” (Bacterin International, Inc., priority 2004, dated 2017).

Details: aqueous solutions

Ksp: ~10^−18
SMILES: [Ag][I] [silver iodide]
